Test results taken from patent publication US8778889B2, “Antimicrobial decapeptide oral hygiene treatment” (The United States of America as represented by the …, priority 2003, dated 2014).
Ends that are not written are not given here.

Experiments:
MRSA VVRAMC #1 = assay type: cell-based, Staphylococcus aureus
Text: (§1) As shown in the table below, many drug-resistant pathogens including multidrug-resistant Acinetobacter baumannii (clinical isolates) were susceptible to the bactericidal activity of the newly developed antimicrobial peptides. […] This is shown by their lower MIC and MBC against a number of antibiotic-resistant bacteria including methicillin-resistant Staphylococcus aureus, vancomycin-resistant Enterococci, and multidrug-resistant Acinetobacter baumannii. Many of these resistant strains are involved in nosocomial infections, which affect the immunocompromised and the elderly individuals with weakened defenses. The tests were done in a broth microdilution assay as described in our earlier publication (Concannon et al., 2003).

MRSA VVRAMC #10 = assay type: cell-based, Staphylococcus aureus
Text: as §1

MRSA ATCC #33591 = assay type: cell-based, Staphylococcus aureus
Text: as §1

MRSA ATCC #43300 = assay type: cell-based, Staphylococcus aureus
Text: as §1

MRSA WRAMC #9 = assay type: cell-based, Staphylococcus aureus
Text: as §1

MRSA WRAMC #12 = assay type: cell-based, Staphylococcus aureus
Text: as §1

[1] = test system: biofilms grown on saliva-coated HA surfaces; test: Live/Dead BacLight staining with confocal laser scanning microscopy of treated biofilms; assay type: cell-based, human salivary bacteria; details: 66 h-old biofilms; KSL 200 μg/ml, Bzl 0.001%, CHX 0.12%
Description: (A) Effect of KSL on intact versus disrupted 45 h biofilms formed on saliva-coated HA disks by salivary bacteria using the in vitro plaque assay. A Mann-Whitney test was used for comparison of log reductions in CFU between the experimental groups (KSL-treated intact or disrupted biofilms) with the control groups (dH2O-treated intact or disrupted biofilms). The single asterisk represents a statistically significant difference between KSL and dH2O-treated intact biofilms (p<0.05). Likewise, double asterisks represent a statistically significant difference between KSL and dH2O-treated disrupted biofilms (p<0.01). […] (B) Effect of benzalkonium chloride in promoting the bactericidal activity of KSL against 66 h-old intact oral biofilms formed on saliva-coated HA disks using the in vitro plaque system. A Kruskal-Wallis test was used to compare log reductions in CFU among various treatment groups including the control group (dH2O-treated). The single asterisk represents a statistically significant difference between the combined treatment of KSL and benzalkonium chloride (Bzl) and dH2O (p<0.001), KSL (p<0.01), or Bzl (p<0.01)-treated intact biofilms. Double asterisks represent a statistically significant difference between CHX and dH2O (p<0.001) or Bzl (P<0.05)-treated intact biofilms. […] No significant difference in viability counts was observed between CHX-treated versus the combined use of KSL and Bzl. For (A) and (B), the data represent the determinations of one of three separate experiments, each performed in quadruplicate. Bars represent standard deviations. (C) Confocal images of control and treated biofilms grown on saliva-coated HA surfaces. Live/Dead BacLight™ Viability kit (Molecular Probes, Eugene, Oreg.) was used to assess the viability of biofilm cells exposed to different treatments. […] An excitation wavelength of 488 nm was used and the fluorescence light emitted was collected by two separate emission filters, 500-530 nm (SYTO 9, live), and 650-710 nm (propidium iodide, dead). […]

physchem = assay type: physicochemical; details: for half-life at 200 μg/ml: buffer
Description: KSL was analyzed by RP-HPLC using a Prosphere C-18 analytical column (4.6×250 mm, Alltech, Deerfield, Ill.) with a Prosphere C-18 guard column (4.6×7.5 mm, Alltech, Deerfield, Ill.). A gradient elution was performed with mobile phase A (0.1% TFA in water) and mobile phase B (0.1% TFA in acetonitrile). KSL was eluted with a linear gradient from 80:20 to 70:30 (mobile phase A:B) for 8 min at a flow rate of 1.0 ml/min. Total run time was 16 min and the injection volume was 40 μl. Chromatograms were recorded by UV detection at 215 nm.
Test solutions of KSL were prepared using a stock peptide solution of 10 mg/ml in deionized water. The degradation of KSL peptide was investigated in sodium acetate (pH 4), sodium phosphate (pH 7.4) and sodium borate (pH 9) buffers at 0.1 M buffer concentration. Each buffer solution containing 200 μg/ml of KSL was incubated in a temperature-controlled oven at 25, 37 and 55° C., respectively. Samples were taken at pre-determined times and analyzed under HPLC conditions described above. The stability of KSL was studied at 37° C. in artificial saliva over a three day period. Artificial saliva was used in the in vitro release studies in an attempt to simulate actual conditions of use. The ingredients of the artificial saliva were as follows: sodium chloride, 0.844 g; potassium chloride, 1.200 g; calcium chloride dihydrate, 0.193 g; magnesium chloride hexahydrate, 0.111 g; potassium phosphate dibasic, 0.342 g; water to make to 1000 ml. The pH was adjusted with hydrochloric acid solution to pH 5.7±0.1 [26].

KKVVFKVKFK-NH2 [KSL, Lys-Lys-Val-Val-Phe-Lys-Val-Lys-Phe-Lys-NH2]
MBC (MRSA VVRAMC #1): >200 µg/mL | MIC (MRSA VVRAMC #1): >200 µg/mL | MBC (MRSA VVRAMC #10): >200 µg/mL | MIC (MRSA VVRAMC #10): >200 µg/mL | MBC (MRSA ATCC #33591): >200 µg/mL | MIC (MRSA ATCC #33591): 200 µg/mL | MBC (MRSA ATCC #43300): 200 µg/mL | MIC (MRSA ATCC #43300): 100 µg/mL | MBC (MRSA WRAMC #9): >200 µg/mL | MIC (MRSA WRAMC #9): >200 µg/mL | MBC (MRSA WRAMC #12): >200 µg/mL | MIC (MRSA WRAMC #12): >200 µg/mL | viability of biofilm cells by live/dead staining [1]: less impact on the viability of biofilm cells | half-life at 200 μg/ml (physchem; pH 4): 165 days | half-life at 200 μg/ml (physchem; pH 7.4): 13.8 days | half-life at 200 μg/ml (physchem; pH 9): 4.7 days | Activation energy (Ea) of degradation (physchem; pH 4): 6.7 kcal/mol
